The text below walks through data of patent US8932986B2, “Herbicidal composition” (Sumitomo Chemical Company, Limited, priority 2012, dated 2015).

Assay [1] deals with Digitaria ciliaris. Description: Herbicidal activity, soil spray on day of sowing, pot test in greenhouse, evaluated after seven days (Example 2). Type of assay: in vivo. As to conditions: 20 g/ha; sprayed on day of sowing; seven days after spray treatment; scale 0 to 100. The method, then:
(§1) Digitaria ciliaris was sowed on a plastic pot filled with a soil. Following the sowing, on the day of the sowing, a mixed liquid of flumioxazin, pyrasulfotole, and mefenpyr-diethyl was sprayed uniformly so that the amounts of the agents might become those shown in Table 2 in a sprayed water amount of 500 L/ha. The mixed liquid of flumioxazin, pyrasulfotole, and mefenpyr-diethyl was prepared by dissolving the respective compounds in prescribed amounts separately in acetone containing 2% (w/v) of Tween 20 (surfactant, produced by Tokyo Chemical Industry Co., Ltd.), diluting the respective solutions with water and then combining them, followed by dilution with water so that the final acetone concentration of the spray liquid might be 10% by volume. After the spray treatment, the pot was carried into a greenhouse. Seven days after the spray treatment, the herbicidal activity to Digitaria ciliaris was evaluated.

Assay [2] has as its system Digitaria ciliaris. Description: Herbicidal activity, soil spray on day of sowing, pot test in greenhouse, evaluated after ten days (Example 3). To be noted: 2 g/ha; sprayed on day of sowing; ten days after spray treatment; scale 0 to 100. Type of assay: in vivo. The method, then:
as §1, with “those as” for “those”, “Table 3” for “Table 2”, “greenhouse. Ten” for “greenhouse. Seven”

For the compound `C#CCN1C(=O)COc2cc(F)c(N3C(=O)C4=C(CCCC4)C3=O)cc21` [Flumioxazin], the figures for the “Herbicidal activity Digitaria ciliaris” value in assay [1] and in assay [2] were 10 and 40, respectively.
